Results taken from patent publication US6914045B2, “Glycopeptide antibiotics” (Wyeth Holdings Corporation, priority 2001, dated 2005).

Key:
Experiment in all cases: in vitro antibacterial evaluation, MIC by broth dilution
Format in all cases: cell-based
Enterococcus sp. = conditions: broth dilution, 18 hours at 35° C.; for MIC Enterococcus faecalis (ATCC 29212): strain ATCC 29212; for MIC Enterococcus faecalis (GC 2242): strain GC 2242; for MIC Enterococcus faecium (GC 2243): strain GC 2243; for MIC Enterococcus faecalis (GC 2691): strain GC 2691; for MIC Enterococcus faecalis (GC 3059): strain GC 3059; for MIC Enterococcus faecalis (GC 4552): strain GC 4552; for MIC Enterococcus faecalis (GC 4553): strain GC 4553; for MIC Enterococcus faecalis (GC 4554): strain GC 4554; for MIC Enterococcus faecium (GC 4556): strain GC 4556; for MIC Enterococcus faecium (GC 4557): strain GC 4557; for MIC Enterococcus avium (GC 4558): strain GC 4558; for MIC Enterococcus faecalis (GC 6189): strain GC 6189
Outline: (§1)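 Following National Committee for Clinical Laboratory Standards recommendations (M7-A2), susceptibility was measured by dilution in Muller-Hinton II […]. Bacteria were seeded at 5×10^5 CFU/mL against compound concentrations from 64 down to 0.06 μg/mL.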

Escherichia coli = system: Escherichia coli
Outline: as §1

Staphylococcus sp. = conditions: broth dilution, 18 hours at 35° C.; for MIC Staphylococcus aureus (GC 1131): strain GC 1131
Outline: as §1

Streptococcus sp. = conditions: broth dilution, 18 hours at 35° C.; for MIC Streptococcus pneumoniae (ATCC 6301): strain ATCC 6301; for MIC Streptococcus pneumoniae (GC 1894): strain GC 1894; for MIC Streptococcus pyogenes (GC 4563): strain GC 4563; for MIC Streptococcus agalactiae (GC 4564): strain GC 4564; for MIC Streptococcus pneumoniae (GC 4565): strain GC 4565
Outline: as §1

CC(c1ccccc1)C1NC(=O)CNC(=O)C(CO)NC(=O)C(C(O)C2CNC(=N)N2C2OC(CO)C(O)C(O)C2O)NC(=O)C(C(O)C2CNC(=N)N2)NC(=O)C(Cc2ccc(OC3OC(CO)C(OC4OC5COC(c6ccc(Oc7ccc(C(C)(C)C)cc7)cc6)OC5C(O)C4O)C(O)C3O)cc2)NC1=O (centres unmarked) [Example 181]
4 µg/mL: MIC Enterococcus faecalis (GC 2691) (Enterococcus sp.; inoculum 5×10^5 CFU/mL) | MIC Enterococcus faecalis (GC 3059) (Enterococcus sp.; inoculum 5×10^5 CFU/mL) | MIC Enterococcus faecium (GC 4556) (Enterococcus sp.; inoculum 5×10^5 CFU/mL) | MIC Enterococcus faecium (GC 4557) (Enterococcus sp.; inoculum 5×10^5 CFU/mL) | MIC Enterococcus avium (GC 4558) (Enterococcus sp.; inoculum 5×10^5 CFU/mL) | MIC Enterococcus faecalis (GC 2691) (Enterococcus sp.) | MIC Enterococcus faecalis (GC 3059) (Enterococcus sp.) | MIC Enterococcus faecium (GC 4556) (Enterococcus sp.) | MIC Enterococcus faecium (GC 4557) (Enterococcus sp.) | MIC Enterococcus avium (GC 4558) (Enterococcus sp.) | MIC Staphylococcus aureus (GC 1131) (Staphylococcus sp.; inoculum 5×10^5 CFU/mL) | MIC Staphylococcus aureus (ATCC 29213) (Staphylococcus sp.; strain ATCC 29213) | MIC Staphylococcus aureus (GC 1131) (Staphylococcus sp.) | MIC Staphylococcus aureus (GC 3051) (Staphylococcus sp.; strain GC 3051) | MIC Staphylococcus aureus (GC 3053) (Staphylococcus sp.; strain GC 3053) | MIC Staphylococcus aureus (GC 4541) (Staphylococcus sp.; strain GC 4541) | MIC Staphylococcus aureus (GC 4542) (Staphylococcus sp.; strain GC 4542) | MIC Staphylococcus aureus (GC 4544) (Staphylococcus sp.; strain GC 4544) | MIC Staphylococcus aureus (GC 4545) (Staphylococcus sp.; strain GC 4545) | MIC Staphylococcus aureus-SMITH (GC 4543) (Staphylococcus sp.; strain GC 4543)
1 µg/mL: MIC Enterococcus faecalis (GC 4553) (Enterococcus sp.; inoculum 5×10^5 CFU/mL) | MIC Enterococcus faecalis (GC 4553) (Enterococcus sp.) | MIC Coagulase Negative Staphylococcus (GC 4549) (Staphylococcus sp.; strain GC 4549)
16 µg/mL: MIC Escherichia coli (GC 4560) (Escherichia coli; strain GC 4560, 18 hours at 35° C.)
>64 µg/mL: MIC Escherichia coli (ATCC 25922) (Escherichia coli; strain ATCC 25922, 18 hours at 35° C.) | MIC Escherichia coli (GC 4559) (Escherichia coli; strain GC 4559, 18 hours at 35° C.)
<0.06 µg/mL: MIC Streptococcus pneumoniae (ATCC 6301) (Streptococcus sp.; inoculum 5×10^5 CFU/mL) | MIC Streptococcus pneumoniae (GC 1894) (Streptococcus sp.; inoculum 5×10^5 CFU/mL) | MIC Streptococcus agalactiae (GC 4564) (Streptococcus sp.; inoculum 5×10^5 CFU/mL) | MIC Streptococcus pneumoniae (GC 4565) (Streptococcus sp.; inoculum 5×10^5 CFU/mL) | MIC Streptococcus pneumoniae (ATCC 6301) (Streptococcus sp.) | MIC Streptococcus pneumoniae (GC 1894) (Streptococcus sp.) | MIC Streptococcus agalactiae (GC 4564) (Streptococcus sp.) | MIC Streptococcus pneumoniae (GC 4565) (Streptococcus sp.)
8 µg/mL: MIC Staphylococcus haemolyticus (GC 4546) (Staphylococcus sp.; strain GC 4546) | MIC Coagulase Negative Staphylococcus (GC 4547) (Staphylococcus sp.; strain GC 4547)
0.5 µg/mL: MIC Streptococcus pyogenes (GC 4563) (Streptococcus sp.; inoculum 5×10^5 CFU/mL) | MIC Streptococcus pyogenes (GC 4563) (Streptococcus sp.)
2 µg/mL: MIC Enterococcus faecalis (ATCC 29212) (Enterococcus sp.; inoculum 5×10^5 CFU/mL) | MIC Enterococcus faecalis (GC 2242) (Enterococcus sp.; inoculum 5×10^5 CFU/mL) | MIC Enterococcus faecium (GC 2243) (Enterococcus sp.; inoculum 5×10^5 CFU/mL) | MIC Enterococcus faecalis (GC 4552) (Enterococcus sp.; inoculum 5×10^5 CFU/mL) | MIC Enterococcus faecalis (GC 4554) (Enterococcus sp.; inoculum 5×10^5 CFU/mL) | MIC Enterococcus faecalis (GC 6189) (Enterococcus sp.; inoculum 5×10^5 CFU/mL) | MIC Enterococcus faecalis (ATCC 29212) (Enterococcus sp.) | MIC Enterococcus faecalis (GC 2242) (Enterococcus sp.) | MIC Enterococcus faecium (GC 2243) (Enterococcus sp.) | MIC Enterococcus faecalis (GC 4552) (Enterococcus sp.) | MIC Enterococcus faecalis (GC 4554) (Enterococcus sp.) | MIC Enterococcus faecalis (GC 6189) (Enterococcus sp.) | MIC Coagulase Negative Staphylococcus (GC 4548) (Staphylococcus sp.; strain GC 4548) | MIC Coagulase Negative Staphylococcus (GC 4551) (Staphylococcus sp.; strain GC 4551) | MIC Coagulase Negative Staphylococcus (GC 6257) (Staphylococcus sp.; strain GC 6257)
